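Each compound was tested at five concentrations against cells in 96-well plates for 48 hours. The concentration for 50% growth inhibition is given as GI50.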 The source made the active and inactive calls. Cut-off read from the data, not from the text of the source: active = GI50 up to about 1.1 µM and inactive = higher.
Assays:
Assay in all cases: NCI-60 cell line screen, 48 h
[1] = test system: SNB-78
[2] = test system: RXF 631
[3] = test system: HOP-18
[4] = test system: DMS-114
[5] = test system: KM-20L2
[6] = test system: BT-549
[7] = test system: PC-3
[8] = test system: MDA-N
[9] = test system: M19-MEL

Measured: GI50

O=C1c2cccc(O)c2C(=O)c2c(O)cc(CO)cc21 [ALOE-EMODIN]
inactive: [1] > 100 µM | [2] 67.5 µM | [3] > 100 µM | [4] 28.2 µM | [5] 39.4 µM

C=C1C(=O)OC2C[C@@]3(C)CCCC(=C)C3CC12 (some centres not stated)
inactive: [1] 3.27 µM | [3] 17.5 µM | [4] 16.2 µM | [5] 12.2 µM

Cc1nc(Cl)c(C)c(Cl)n1
inactive: [6] > 100 µM | [7] > 93.3 µM | [8] 18.8 µM

CC1C(=O)C(C)C(c2ccco2)N(N=O)C1c1ccco1 (configuration not stated)
inactive: [1] > 100 µM | [3] > 67.1 µM | [5] > 100 µM | [9] > 100 µM

COc1ccc(-c2cc(O)c3c(C)ccnc3n2)cc1
inactive: [6] 33.7 µM

Cc1c(C)c2ccc(OCC(O)COC(C)C)c(C)c2oc1=O (configuration not stated)
inactive: [7] 45.2 µM | [8] 17.7 µM

CC1=N/C(=C\c2ccc(N)cc2)C(=O)N1Nc1nnc(NN2C(=O)/C(=C/c3ccc(N)cc3)N=C2C)c2ccccc12
inactive: [3] 27.1 µM | [5] > 100 µM | [9] 38.1 µM

CC(=O)OC1COC(N2c3ccccc3[C@@H]3CCc4c([nH]c5ccccc45)[C@@H]32)C(OC(C)=O)C1OC(C)=O.CC(=O)OC1COC(N2c3ccccc3[C@H]3CCc4c([nH]c5ccccc45)[C@H]32)C(OC(C)=O)C1OC(C)=O (some centres not stated)
inactive: [6] 56.9 µM | [7] 16.2 µM | [8] 65.3 µM

O=C1CCC(=O)C1=NNc1ccccc1
inactive: [1] > 100 µM | [2] > 100 µM | [3] > 100 µM | [4] > 100 µM | [9] > 100 µM

CC(Sc1ccccc1)C(CO)(CO)[N+](=O)[O-] (configuration not stated)
inactive: [1] 22.3 µM | [3] 21.9 µM | [4] 17.2 µM | [5] 17.2 µM | [9] 16.4 µM

CCOC(=O)NC(Nc1ncccn1)(C(F)(F)F)C(F)(F)F
inactive: [6] > 100 µM | [8] > 100 µM

CCOc1ncn(-c2ccc(NC(=S)Nc3ncccn3)cc2)n1
inactive: [6] 20.8 µM | [7] 46.5 µM

CCC1C(C#N)=C(O)NC(O)=C1C#N
inactive: [1] > 100 µM | [2] > 100 µM | [3] > 100 µM | [4] > 100 µM | [5] > 100 µM | [9] > 100 µM

Fc1nc(Sc2ncnc3nc[nH]c23)nc(-c2c3ccccc3c3sc4ccccc4n23)n1
inactive: [6] > 100 µM | [7] > 100 µM | [8] > 100 µM

CCN1c2ccccc2-n2c(C)nnc2-c2c(-c3ccccc3)n[nH]c21
inactive: [7] 30.4 µM | [8] 28 µM

CCOC(=O)Cc1cc(OC)c(OC)cc1/C(Cl)=C(\C=O)c1ccc(OC)c(OC)c1
inactive: [1] 22.3 µM | [2] 20.3 µM | [3] 28.7 µM | [4] 18.2 µM | [5] 15.3 µM | [9] 22.6 µM

O=C(CCN1CCOCC1)/C(=C/c1ccccc1)c1ccccc1
inactive: [1] 5.51 µM | [3] 16.7 µM | [4] 3.06 µM | [5] 9.82 µM | [9] 3.82 µM

CC(=O)c1c(-c2ccco2)c(C#N)c(=S)n(C2OC(CO)C(O)C(O)C2O)c1-c1ccccc1 (configuration not stated)
inactive: [6] > 100 µM | [7] 64.4 µM | [8] > 10 µM

O=C1O/C(=C\c2ccc(O)c(Br)c2)C(c2ccc(O)c(Cl)c2)=C1Br
inactive: [6] 17.9 µM | [7] 11.7 µM | [8] 16.8 µM

CCOC(=O)CCN1C(=O)c2c(NC(=O)C(=O)O)cccc2S1(=O)=O
inactive: [6] > 100 µM | [7] > 100 µM | [8] > 100 µM

O=C(N/C(=C\c1ccccc1[N+](=O)[O-])c1nc2ccccc2[nH]1)c1ccccc1
inactive: [1] 92.7 µM | [2] > 100 µM | [5] > 100 µM | [9] > 100 µM

CC(C)c1ccc(/C=C2\CSCC3=C2N=C2SCC(=O)N2C3c2ccc(C(C)C)cc2)cc1 (configuration not stated)
inactive: [7] > 100 µM | [8] > 100 µM

Cc1nc(O)nc(O)c1/C=C/C(=O)O
inactive: [1] > 1000 µM | [3] > 1000 µM | [4] > 1000 µM | [5] > 1000 µM | [9] > 1000 µM

CCc1c(-c2ccc(OC)cc2)oc(OC)c(C)c1=O
inactive: [6] 93.8 µM | [7] 57.4 µM

OC(c1cc2ccccc2[nH]1)C(O)(c1cc2ccccc2[nH]1)c1cc2ccccc2[nH]1 (configuration not stated)
inactive: [2] 17.4 µM | [4] 7.31 µM | [5] 10.1 µM | [9] 7.06 µM
